# Test results from patent publication US20070286896A1, “Therapeutic or Diagnostic Drug for Inflammatory Disease Comprising Targeting Liposome” (NATIONAL INSTITUTE OF ADVANCED INDUSTRIAL SCIENCE AND …, priority 2003, published 2007).
# Columns and labels:
# Type in all cases: in vivo, DBA/1J mice
# [1] = test system: Collagen type II induced arthritis (CIA) mice; experiment: Medical treatment of RA mice by oral administration of DDS liposomes; conditions: oral three times/week Day 28 to Day 39; free Pred 100 μg, L-Pred 10 μg per administration
# Experimental: (§1) A water solution of the collagen and the CFA were mixed at a volume ratio of 2:1 to prepare an emulsion containing 200 μg of the collagen per 100 μL thereof. This emulsion was subcutaneously injected into the bottom of the tails of the mice (Day 0). After 21 days from the administration (Day 21), a water solution of the collagen and the IFA were mixed at a volume ratio of 2:1 to prepare an emulsion containing 200 μg of the collagen per 100 μL thereof, and this emulsion was subcutaneously injected again into the bottom of the tails of the mice.
# (§2) After the injection, the limbs of the mice were observed on a three times/week basis, and inflammation was quantitatively determined by giving it a point according to the following criteria: for each limb, normal: 0 point, mild inflammation or redness: 1 point, severe redness, dilatation, or reduced use: 2 points, and deformed palm, plantar region, or joint region: 3 points (0 point lowest, 12 points highest, per mouse). Inflammatory activity (hereinafter, referred to as IA) was determined by applying the obtained point to the following formula: Inflammatory activity (%)=points of all limbs/12×100.
# Mice with arthritis received medical treatment by orally administering a therapeutic drug to the mice. The oral administration was performed on a three times/week basis for a period from Day 28 to Day 39. […]
# [2] = test system: Collagen type II induced arthritis (CIA) mice; experiment: Medical treatment of RA mice by intravenous administration of DDS liposomes
# Experimental: as §1, §2
# Mice with arthritis received medical treatment by injecting a therapeutic drug to the tail veins thereof. The intravenous injection was performed on a twice/week basis for a period from Day 28 to Day 46. […]
# [3] = test system: Collagen type II induced arthritis (CIA) mice; experiment: Test for determining proper amount of prednisolone phosphate for RA mice; conditions: Day 28 to Day 46
compound,measurement,setting,value
C[C@]12C=CC(=O)C=C1CC[C@@H]1[C@@H]2[C@@H](O)C[C@@]2(C)[C@H]1CC[C@]2(O)C(=O)COP(=O)(O)O [prednisolone phosphate],"difference in IA among the control, free Pred (until Day 32) and L-Pred groups",[1],no significant difference
same,Inflammatory activity (IA),"[2]; intravenous 100 μg/injection (200 μg/week) prednisolone phosphate, Day 37",approximately 50%
same,IA compared with other groups / progression of inflammation,"[2]; intravenous twice/week Day 28 to Day 46, free Pred 100 μg/injection, liposomes 10 μg/injection",no evident difference was observed between the IA of the free Pred group and the IA of the Control group
same,IA compared with control group,[3]; intravenous 250 μg/injection (500 μg/week),No significant difference
same,rise in IA / progression of the inflammation,[3]; intravenous 500 μg/injection (1000 μg/week),"a rise in IA was not observed, and the progression of the inflammation was suppressed"
